How the values were obtained:
[1] = tested on: AMPA receptor subunit GluR2; assay: CDKL5 gene silencing experiment, Western blotting of GluR2 and GluR2 phospho-Ser880 in primary hippocampal cultures; format: cell-based, mouse; details: CDKL5-silenced hippocampal neurons
[2] = tested on: AMPA receptor subunit GluR2; assay: CDKL5 gene silencing experiment, immunofluorescence of cell-surface expressed GluR2 in primary hippocampal cultures; format: cell-based, mouse; details: 10 uM on alternate days from DIV11 to DIV18 (DIV11-13-15-17); CDKL5-silenced hippocampal neurons
Cdkl5 knockout mice = assay: Rotarod assessment of motor coordination in Cdkl5 knockout mice; format: in vivo
From the text: The generation of Cdkl5 knockout mice and rotarod assessment of motor coordination could be carried out following the method described in Wang, I. -T. J et al. (2012) PNAS 109: 21516-21521, as follows.

[3] = 10 uM on alternate days from DIV11 to DIV18 (DIV11-13-15-17)
[4] = 10 μM on alternate days from DIV15-18 (DIV15-17)

| SMILES | effect of CDKL5 silencing on expression of the AMPA receptor subunit GluR2 (Western blotting) [1, 3] | effect of CDKL5 silencing on phosphorylated GluR2 (phosphorylation at serine-880) (Western blotting) [1, 3] | effect of CDKL5 silencing on expression of the AMPA receptor subunit GluR2 (Western blotting) [1, 4] | effect of CDKL5 silencing on phosphorylated GluR2 (phosphorylation at serine-880) (Western blotting) [1, 4] | effect of CDKL5 silencing on expression of GluR2 in terms of number of puncta (immunofluorescence) [2] | time spent on the rotarod before falling (Cdkl5 knockout mice; Cdkl5 knockout mice treated before onset of motor deficits, at 3 weeks of age, relative to untreated mice) | rotarod scores (motor coordination and balance) (Cdkl5 knockout mice; Cdkl5 knockout mice treated from 6 weeks of age for 4 weeks, after onset of motor deficits, versus vehicle) |
| --- | --- | --- | --- | --- | --- | --- | --- |
| CN1c2ccccc2C(NCCCCOCC(=O)O)c2ccc(Cl)cc2S1(=O)=O.Cl (stereo not drawn) [TIOX, 2-(4-((3-chloro-6-methyl-5,5-dioxido-6,11-dihydrodibenzo[c,f][1,2]thiazepin-11-yl)amino)butoxy)acetic acid, HCl salt] | reversed the effect of CDKL5 silencing | reversed the effect of CDKL5 silencing | reversed the effect of CDKL5 silencing | reversed the effect of CDKL5 silencing |  |  |  |
| CN1c2ccccc2C(NCCCCCCC(=O)O)c2ccc(Cl)cc2S1(=O)=O.O=S(=O)(O)O (stereo not drawn) [tianeptine sulphate] | reversed the effect of CDKL5 silencing | reversed the effect of CDKL5 silencing |  |  | reversed the effect of CDKL5 silencing |  |  |
| CN1c2ccccc2C(NCCCCCCC(=O)O)c2ccc(Cl)cc2S1(=O)=O (stereo not drawn) [Tianeptine, 7-[(3-chloro-6,1′-dihydro-6-methyl-dibenzo[c,f][1,2]thiazepin-11-yl)amino]heptanoic acid S,S-dioxide] |  |  |  |  |  | increase the time spent on the rotarod before falling | higher than scores for Cdkl5 knockout mice given vehicle but are below WT values |

Source: patent US20220265676A1, “[…] DIBENZO[…] COMPOUNDS FOR USE IN THE THERAPY OF CDKL5 DISORDER” (Healx Limited, priority 2016, published 2022)
